Patent publication US6338963B1, “Use of carbon monoxide dependent guanylyl cyclase modifiers to stimulate neuritogenesis” (NeoTherapeutics, Inc., priority 1994, dated 2002)
Marks after values point to notes of the source that are not given here.

What was measured:
[1] = system: mice; test: Home cage locomotor activity; type: in vivo
Protocol: To measure home cage locomotor activity, the home cage was placed on a platform of an activity monitor (Stoelting Instruments). Home cage locomotor activity movements were recorded at one minute intervals for 15 minutes. Subjects received saline or AIT-082 and were returned to their home cages. Ten minutes after injection, the home cage was replaced on the platform of the activity monitor. Home cage locomotor activity movements were recorded at one minute intervals for 30 minutes. During the first five minutes, grooming activity was also monitored and recorded.

[2] = system: Swiss Webster mice; test: Win-shift T-maze memory test, Swiss Webster mice; type: in vivo; details: for Win-shift Memory Test, Correct responses: 90-second inter-trial interval
Protocol: Male Swiss Webster mice six months (young adult) and eleven months (old) of age, obtained from the National Institute on Aging, were maintained in individual cages, on a […] light/dark cycle with continuous access to water. Food was limited so that the mice stabilized at 80% of free feeding weight. Mice were weighed and handled daily for one week. The win-shift model was run as described in the literature and consists of a T-maze in which the correct response alternates after each correct trial. The interval between trials is varied and allows for the determination of the longest period between trials that a subject can remember the correct response on the previous trial. This allows the measure of the duration of the memory trace. […] The reward goal box is alternated after each correct trial. Ten trials per mouse are run each day. […] The latency time to leave the start box is recorded as a measure of motivation, the running time (the time from leaving the start box to reaching the goal box) is recorded as a measure of performance, and the number of correct responses as a measure of memory.
(§1) The drugs used in this example are 4-((3-(1,6-dihydro-6-oxo-9-purin-9-yl)-1-oxopropyl)amino) benzoic acid (AIT-082), as an exemplary potassium salt, tacrine hydrochloride (tetrahydroaminoacridine, THA, Sigma Chemical Co., St. Louis, Mo.), and physostigmine, hemisulfate salt (PHY, Sigma Chemical Co., St. Louis, Mo.). The drugs were dissolved in saline and prepared fresh daily. All injections were made at a volume of 0.1 ml/10 grams body weight. When testing drug effects, intraperitoneal (i.p.) injections of AIT-082 or THA were made one hour prior to the start of testing. Due to its shorter duration of action, PHY was injected 30 minutes prior to testing. Control subjects receive a similar injection of saline (vehicle).
To determine the duration of the memory trace, subjects were administered drug or saline and 30 minutes (PHY) or 1 hour (AIT-082 or THA) later they were given a single reference run with the milk reward in both goal boxes. After the indicated inter-trial delay, subjects were returned to the start box and given the first test trial with the milk reward only in the goal box opposite to the one entered on the previous correct trial. The subjects were given 10 trials with the reward alternating only after correct responses.
To determine if tolerance to the biological effects of AIT-082 developed, drug or saline was administered daily for 18 days prior to the testing in the standard win-shift paradigm.

[3] = system: Swiss Webster mice; test: Locomotor activity (spontaneous movements), Swiss Webster mice; type: in vivo
Protocol: The activity of AIT-082 was compared with tacrine (THA) and physostigmine (PHY), experimental anticholinesterase agents which enhance memory in animals. The drugs were also evaluated for their effects on locomotor activity. In the win-shift memory paradigm, AIT-082 was evaluated for its ability to induce tolerance after 18 days of drug administration. In addition AIT-082 was tested for its activity to modify learning in a modified T-maze discrimination task.
as §1

[4] = system: Swiss Webster mice; test: Win-shift test, Swiss Webster mice with age-induced memory deficits; type: in vivo; details: AIT-082 30 mg/kg
Protocol: Twelve-month old male Swiss Webster mice were screened for performance in the win-shift foraging test. Subjects were tested at various time delays, beginning at 10 seconds and increasing the inter-trial time interval to 30, 60, 90 and 120 seconds.
Subjects with severe impairment could not remember the correct response at 10 seconds while subjects with mild deficit could remember the correct response with a 30 second inter-trial interval but not at 60 seconds. Subjects with a moderate deficit could remember the correct response with a 10 second inter-trial interval but not […] at 30 seconds. Thus, the win-shift model can detect age-induced impairments in working memory. As will be appreciated by those skilled in the art, this observation is important since it provides the ability to use age-matched subjects with varying degrees of impairment for evaluation of potential therapeutic agents.
Following the establishment of a baseline, six subjects in each of the three groups were treated with AIT-82 (30 mg/kg, one hour before testing) or physostigmine (0.125 mg/kg, 30 minutes before testing) using the win-shift foraging test. The results are presented in Table L directly below and graphically represented in FIG. 9.

[5] = system: C57BL/6 mice; test: Ethanol-induced working memory deficit (win-shift); type: in vivo; details: Ethanol 0.5 gm/kg i.p. + AIT-082 30 mg/kg i.p. 1 hour prior
Protocol: Six month old male C57BL/6 mice were evaluated in the win-shift model in combination with treatment with ethanol, a non-specific memory suppressant, and AIT-082. Subjects were treated with saline (control) or AIT-082 (30 mg/kg. i.p.) 1 hour prior to testing. Ethanol was administered at a dose of 0.5 gm/kg i.p. ten minutes prior to testing.

[6] = system: NT-3 mRNA; test: RT-PCR of growth factor mRNA after T8 spinal cord hemisection: NT-3; type: in vivo, Wistar rats
[7] = system: mice; details: oral or intraperitoneal route, preliminary

Q: How did the “Locomotor activity, Movements (mean ± S.D.) Post-drug” value ([1]; AIT dose 0.005 mg/kg) turn out when `O=C(CCn1cnc2c(=O)[nH]cnc21)Nc1ccc(C(=O)O)cc1` [AIT-082, N-4-carboxyphenyl-3-(6-oxohydropurin-9-yl)propanamide] was run?
A: 1375 ± 563

Q: What about the “Locomotor activity, Movements (mean ± S.D.) Difference” value ([1]; AIT dose 0.005 mg/kg, pre-drug minus post-drug) of the same compound?
A: 509 ± 429

Q: What about the “Locomotor activity, Movements (mean ± S.D.) Difference” value ([1]; AIT dose 0.05 mg/kg) of the same compound?
A: 209 ± 340

Q: And the “Locomotor activity, Movements (mean ± S.D.) Post-drug” value ([1]; AIT dose 0.05 mg/kg)?
A: 1508 ± 456

Q: And the “Locomotor activity, Movements (mean ± S.D.) Difference” value ([1]; AIT dose 0.5 mg/kg)?
A: 290 ± 435

Q: What about the “Locomotor activity, Movements (mean ± S.D.) Post-drug” value ([1]; AIT dose 0.5 mg/kg) of the same compound?
A: 1320 ± 689

Q: What about the “Locomotor activity, Movements (mean ± S.D.) Difference” value ([1]; AIT dose 30.0 mg/kg) of the same compound?
A: 342 ± 267

Q: And the “Locomotor activity, Movements (mean ± S.D.) Post-drug” value ([1]; AIT dose 30.0 mg/kg)?
A: 1098 ± 189

Q: And the “Win-shift Memory Test, Correct responses” value ([2]; AIT-082 0.5 mg/kg i.p.)?
A: 6.5* Correct responses/10 trials

Q: And the “Win-shift Memory Test, Correct responses” value ([2]; AIT-082 30.0 mg/kg i.p.)?
A: 8.2* Correct responses/10 trials

Q: What about the Tolerance ([2]; AIT-082 30.0 mg/kg daily for 18 days prior to win-shift testing) of the same compound?
A: 7.6* Correct responses/10 trials

Q: What about the onset of action ([2]; data not shown) of the same compound?
A: 1 h

Q: What about the duration of action ([2]; single dose of 60 mg/kg) of the same compound?
A: more than seven days

Q: And the “Locomotor Activity” value ([3]; AIT-082 0.5 mg/kg)?
A: 323 Spontaneous movements per hour

Q: What about the “Locomotor Activity” value ([3]; AIT-082 30.0 mg/kg) of the same compound?
A: 378 Spontaneous movements per hour

Q: And the “subjects performing significantly above chance/total number of subjects” value ([4]; Mild deficit, interval 60 sec)?
A: 6/6*

Q: And the “subjects performing significantly above chance/total number of subjects” value ([4]; Mild deficit, interval 90 sec)?
A: 4/6

Q: And the “subjects performing significantly above chance/total number of subjects” value ([4]; Mild deficit, interval 120 sec)?
A: 2/6

Q: What about the “subjects performing significantly above chance/total number of subjects” value ([4]; Mild deficit, interval 150 sec) of the same compound?
A: 1/6

Q: And the “subjects performing significantly above chance/total number of subjects” value ([4]; Mild deficit, interval 180 sec)?
A: 1/6

Q: What about the “subjects performing significantly above chance/total number of subjects” value ([4]; Mild deficit, interval 210 sec) of the same compound?
A: 0/6

Q: What about the “subjects performing significantly above chance/total number of subjects” value ([4]; Moderate deficit, interval 30 sec) of the same compound?
A: 4/6*

Q: And the “subjects performing significantly above chance/total number of subjects” value ([4]; Moderate deficit, interval 60 sec)?
A: 2/6

Q: What about the “subjects performing significantly above chance/total number of subjects” value ([4]; Moderate deficit, interval 90 sec) of the same compound?
A: 0/6

Q: What about the “subjects performing significantly above chance/total number of subjects” value ([4]; Severe deficit, interval <10 sec) of the same compound?
A: 0/6

Q: And the “Correct trials (mean number of correct responses per 10 trials ± S.E.)” value [5]?
A: 7.89 ± 0.54

Q: What about the “NT-3 mRNA level” value ([6]; at the level of the lesion) of the same compound?
A: no significant differences

Q: What about the “NT-3 mRNA level” value ([6]; caudal to lesion, 7 days) of the same compound?
A: no significant effects

Q: And the “NT-3 mRNA level” value ([6]; caudal to lesion, control animals, 3 days)?
A: decreased

Q: What about the LD50 [7] of the same compound?
A: > 3000 mg/kg
